Measurements published in patent publication US20150335637A1, “COMPOSITIONS AND METHODS FOR TREATING CUTANEOUS T CELL LYMPHOMA” (THE TRUSTEES OF THE UNIVERSITY OF PENNSYLVANIA, priority 2013, published 2015).

Tested on: cutaneous T-cell lymphoma (CTCL) lesions
Test: Phase I open label trial of resiquimod gel, clinical response of skin lesions
Type: in vivo, human
Experimental: The final trial design calls for a total of 16-20 patients, with the first half cohort treated topically with 0.06% gel and the second half cohort treated topically with 0.03% gel.
According to the study design, treatment of only four to five target lesions is permitted for eight weeks; followed by four weeks of rest and another eight weeks of therapy. Final evaluation is conducted after four weeks off of therapy.

CCOCc1nc2c(N)nc3ccccc3c2n1CC(C)(C)O [resiquimod, 4-amino-α,α-dimethyl-2-ethoxymethyl-1H-imidazo[4,5-c]quinolin-1-ethanol]
skin lesions of one patient (FIG. 1) (patient refractory to previous treatments, before application vs end of week 8): clears the treated lesions and induces resolution of distant lesions
clinical response rates for treated and untreated lesions (refractory early stage CTCL patients): high clinical response rates of both treated as well as distant, non-treated lesions
